One assay concerns Jurkat E6-1 cells. Nature of the assay: Inhibition of cellular HDAC activity in Jurkat E6-1 cells, fluorogenic substrate Boc-Lys(Tfa)-AMC. Type of assay: cell-based. The following applies: read-out: Cell IC50. The text has this:
Analysis of Inhibition of Cellular HDAC Activity with Class IIa Histone Deacetylase (HDAC) Inhibitors
The potency of Class IIa Histone Deacetylase (HDAC) inhibitors is quantified by measuring the cellular histone deacetylase enzymatic activity using the fluorogenic substrate, Boc-Lys(Tfa)-AMC. After penetration in Jurkat E6-1 cells, the substrate is deacetylated to Boc-Lys-AMC. After cell lysis and cleavage by trypsin, the fluorophore AMC is released from the deacetylated substrate only. The fluorescence of the sample is directly related to the histone deacetylase activity in the sample.
Jurkat E6.1 cells are cultured according to standard cell culture protocols in Jurkat E6.1 Growth Media (RPMI without phenol red, 10% FBS, 10 mM HEPES, and 1 mM Sodium Pyruvate). Jurkat E6.1 cells are counted using a Coulter Counter and resuspended in Jurkat E6.1 growth media at a concentration of 75,000 cells/35 μl. 35 μl or 75,000 cells is seeded into Greiner microtitre assay plates. The plates are then incubated at 37° C. and 5% CO2 while other assay components are being prepared. […]
5 μl of each solution of 1:20 diluted compound from above is transferred to the Greiner microtitre assay plates with 75,000 cells/well using the Bravo. […] Finally the top read fluorescence (Excitation: 355 nm, Emission: 460 nm) is measured using PerkinElmer EnVision.
Sequence of human catalytic domain HDAC4 protein (amino acids 648-1032) (P56524 648-1032): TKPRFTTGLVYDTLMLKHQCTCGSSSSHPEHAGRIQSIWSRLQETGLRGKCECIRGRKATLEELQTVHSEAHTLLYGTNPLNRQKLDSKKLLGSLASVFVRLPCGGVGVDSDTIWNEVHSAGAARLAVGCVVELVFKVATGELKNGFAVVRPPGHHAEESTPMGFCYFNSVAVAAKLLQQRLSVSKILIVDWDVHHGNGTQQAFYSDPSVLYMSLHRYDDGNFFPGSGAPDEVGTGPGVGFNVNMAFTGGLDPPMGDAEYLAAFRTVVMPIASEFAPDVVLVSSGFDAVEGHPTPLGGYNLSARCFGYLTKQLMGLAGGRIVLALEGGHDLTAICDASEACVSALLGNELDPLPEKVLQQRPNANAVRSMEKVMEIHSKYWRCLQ
For `Cc1ncc(C2=C[C@@](C(=O)NO)(c3cccc(F)c3C)CC2)cn1` [Example 9, (R)-1-(3-fluoro-2-methylphenyl)-N-hydroxy-3-(2-methylpyrimidin-5-yl)cyclopent-2-enecarboxamide], the IC50 was over 50000 nM.
Consider `Cc1ncc(C2=C[C@](C(=O)NO)(c3cccc(F)c3C)CC2)cn1` [Example 10, (S)-1-(3-fluoro-2-methylphenyl)-N-hydroxy-3-(2-methylpyrimidin-5-yl)cyclopent-2-enecarboxamide], for which the IC50 was found to be 380 nM.

The target of another assay is human catalytic domain HDAC4 protein (amino acids 648-1032) (Homo sapiens (Human), UniProt P56524). The assay is described as follows: Inhibition of HDAC4 catalytic domain enzymatic activity, fluorogenic substrate Boc-Lys(Tfa)-AMC. The settings on record: read-out: Biochemical HDAC-4 IC50. From the text:
Analysis of Inhibition of HDAC4 with Class IIa Histone Deacetylase (HDAC) Inhibitors
The potency of Class IIa Histone Deacetylase (HDAC) inhibitors is quantified by measuring the Histone Deacetylase 4 (HDAC4) catalytic domain enzymatic activity using the fluorogenic substrate, Boc-Lys(Tfa)-AMC. The substrate is deacetylated to Boc-Lys-AMC by HDAC4. Cleavage by trypsin results in the release of the fluorophore AMC from the deacetylated substrate. The fluorescence of the sample is directly related to the histone deacetylase activity in the sample.
Serial dilutions of the HDAC inhibitors and control reference compound (1-(5-(3-((4-(1,3,4-oxadiazol-2-yl)phenoxy)methyl)-1,2,4-oxadiazol-5-yl)thiophen-2-yl)-2,2,2-trifluoroethanone) are made by first resuspending the lyophilized compound to a final concentration of 10 mM in 100% dimethyl sulfoxide (DMSO). Stocks of 60 μl aliquots of the 10 mM compound in DMSO are prepared and stored at −20° C. From one stock aliquot of each compound to be tested and the reference compound, a 16-point serial dilution is prepared according to
2 μl (200×) of each diluted solution and each control (full activity: 100% DMSO alone or full inhibition 1 mM) is stamped into V-bottomed polypropylene 384-well compound plates using either the Bravo (384-well head from Agilent) or 12.5 μl 16-channel Matrix multi-channel pipette (Matrix Technologies Ltd).
A working solution of enzyme is prepared from a 500 μg/ml stock aliquot of HDAC4 catalytic domain (thawed on ice) diluted to 0.2 μg/ml with assay buffer (50 mM Tris-HCl, 137 mM NaCl, 2.7 mM KCl, and 1 mM MgCl2 at pH 8 and equilibrated to room temperature) just prior to the addition of the enzyme to the assay.
5× (50 μM) substrate is prepared just prior to the addition to the assay. A 1 mM substrate stock is made by diluting a 100 mM Boc-Lys(Tfa)-AMC in DMSO solution 1:100 by adding it drop-wise to assay buffer (equilibrated to room temperature) while vortexing at slow speed to prevent precipitation. The 5× substrate is prepared by diluting the 1 mM substrate solution 1:20 by adding it drop-wise to assay buffer (equilibrated to room temperature) while vortexing at slow speed to prevent precipitation.
3× (30 μM) Developer/Stop Solution is prepared just prior to addition to the plate by diluting a stock solution of 10 mM reference compound 1:333 in 25 mg/ml trypsin (PAA Laboratories Ltd.) equilibrated to room temperature.
5 μl of each solution of 1:20 diluted compound from above is transferred to a clear bottomed, black, 384-well assay plate using the Bravo or the Janus (384-well MDT head from Perkin Elmer). Using a 16-channel Matrix multi-channel pipette, 35 μl of the working solution of HDAC4 catalytic domain enzyme (0.2 μg/ml in assay buffer) is transferred to the assay plate. The assay is then started by adding 10 μl of 5× (50 μM) substrate to the assay plates using either the Bravo, Janus or 16-channel Matrix multi-channel pipette. The assay plate is then shaken for two minutes on an orbital shaker at 900 rpm (rotations per minute). Next the plate is incubated for 15 minutes at 37° C. The reaction is stopped by adding 25 al of 3× (30 μM) developer/stop solution to the assay plates using either the Bravo, Janus or a 16-channel Matrix multi-channel pipette. Assay plates are then shaken for 5 minutes on an orbital shaker at 1200 rpm. Next, the assay plates are incubated at 37° C. for 1 hour in a tissue culture incubator. Finally, the fluorescence is measured (Excitation: 355 nm, Emission: 460 nm) using PerkinElmer EnVision in top read mode.
Turning to `Cc1ncc(C2=C[C@@](C(=O)NO)(c3cccc(F)c3C)CC2)cn1` [Example 9, (R)-1-(3-fluoro-2-methylphenyl)-N-hydroxy-3-(2-methylpyrimidin-5-yl)cyclopent-2-enecarboxamide], the 50% inhibitory concentration (IC50) was determined as 26800 nM.
Still for that read-out and setting: to `O=C(NO)[C@]1(c2ccccc2)C=C(c2ccccc2)CC1` [Example 33, (S)—N-hydroxy-1,3-diphenylcyclopent-2-enecarboxamide] belongs 190 nM; to `O=C(NO)[C@@]1(c2ccccc2)C=C(c2ccccc2)CC1` [Example 34, (R)—N-hydroxy-1,3-diphenylcyclopent-2-enecarboxamide], 31000 nM; to `O=C(NO)[C@]1(c2ccccc2)C=C(c2cncc(F)c2)CC1` [Example 35, (S)-3-(5-fluoropyridin-3-yl)-N-hydroxy-1-phenylcyclopent-2-enecarboxamide], 340 nM.
Still for that read-out and setting: in the case of `Cc1ncc(Cl)cc1C1=C[C@](C(=O)NO)(c2cccc(F)c2C)CC1` [Example 36, (S)-3-(5-chloro-2-methylpyridin-3-yl)-1-(3-fluoro-2-methylphenyl)-N-hydroxycyclopent-2-enecarboxamide] it was 20 nM; in that of `Cc1ncccc1C1=C[C@](C(=O)NO)(c2cccc(F)c2C)CC1` [Example 37, (S)-1-(3-fluoro-2-methylphenyl)-N-hydroxy-3-(2-methylpyridin-3-yl)cyclopent-2-enecarboxamide], 10 nM; in that of `Cc1c(F)cccc1[C@@]1(C(=O)NO)C=C(c2ccc3cnn(C)c3c2)CC1` [Example 38, (S)-1-(3-fluoro-2-methylphenyl)-N-hydroxy-3-(1-methyl-1H-indazol-6-yl)cyclopent-2-enecarboxamide], 10 nM.
On to `Cc1c(F)cccc1[C@@]1(C(=O)NO)C=C(c2ccc3cnn(C(F)F)c3c2)CC1` [Example 39, (S)-3-(1-(difluoromethyl)-1H-indazol-6-yl)-1-(3-fluoro-2-methylphenyl)-N-hydroxycyclopent-2-enecarboxamide], for which the IC50 amounted to 30 nM.
Take `Cc1c(F)cccc1[C@@]1(C(=O)NO)C=C(c2ccc3scnc3c2)CC1` [Example 40, (S)-3-(benzo[d]thiazol-5-yl)-1-(3-fluoro-2-methylphenyl)-N-hydroxycyclopent-2-enecarboxamide]: the IC50 is 10 nM.
In the case of `Cc1c(F)cccc1[C@@]1(C(=O)NO)C=C(c2cc3ccccc3s2)CC1` [Example 41, (S)-3-(benzo[b]thiophen-2-yl)-1-(3-fluoro-2-methylphenyl)-N-hydroxycyclopent-2-enecarboxamide], the IC50 was determined as 20 nM.
Regarding `Cc1c([C@@]2(C(=O)NO)C=C(c3ccc4cnn(C)c4c3)CC2)ccc(F)c1F` [Example 42, (S)-1-(3,4-difluoro-2-methylphenyl)-N-hydroxy-3-(1-methyl-1H-indazol-6-yl)cyclopent-2-enecarboxamide], the IC50 worked out at 10 nM.
Regarding `O=C(NO)C1(c2ccccc2)CC=C(c2cncc(F)c2)CC1` (stereo not shown) [Example 43, 4-(5-fluoropyridin-3-yl)-N-hydroxy-1,2,3,6-tetrahydro-[1,1′-biphenyl]-1-carboxamide], the IC50 turned out to be 3600 nM.
Same read-out and setting: to `Cc1c(F)cccc1C1(C(=O)NO)CC=C(c2cncc(F)c2)CC1` (stereo not shown) [Example 44, 3′-fluoro-4-(5-fluoropyridin-3-yl)-N-hydroxy-2′-methyl-1,2,3,6-tetrahydro-[1,1′-biphenyl]-1-carboxamide] belongs 490 nM; to `Cc1c(F)cccc1C1(C(=O)NO)CC=C(c2ccc3nccnc3c2)CC1` (stereo not shown) [Example 45, 3′-fluoro-N-hydroxy-2′-methyl-4-(quinoxalin-6-yl)-1,2,3,6-tetrahydro-[1,1′-biphenyl]-1-carboxamide], 550 nM.

Broadly, the IC50 is the concentration that gives 50% inhibition.

Source of the values: patent publication US9617259B2, “Histone deacetylase inhibitors and compositions and methods of use thereof” (CHDI Foundation, Inc., priority 2013, dated 2017).
